# In patent US7378413B2, “2-amino-3-(alkyl)-pyrimidone derivatives” (Sanofi Aventis, priority 2000, dated 2008):
# Structures can show the parent of a compound that is named as a salt.
row,melting point,Compound
1,193 to 197 °C,Cn1c(NCc2cccc(CN)c2)nc(-c2ccncc2)cc1=O (as salt: hydrochloride)
2,193 to 196 °C,"Cn1c(NCc2cccc(OCCCN)c2)nc(-c2ccncc2)cc1=O (as salt: hydrochloride) [Compound 26, 2-[[[3-(3-aminopropoxy)phenyl]methyl]amino]-3-methyl-6-pyridin-4-ylpyrimidin-4(3H)-one]"
3,259 to 262 °C,"Cn1c(NCCCCCN)nc(-c2ccncc2)cc1=O (as salt: hydrochloride) [Compound 40, 2-(5-Amino-pentylamino)-3-methyl-6-pyridin-4-yl-3H-pyrimidin-4-one]"
4,157 to 160 °C,"CNCc1ccc(CCN(C)c2nc(-c3ccncc3)cc(=O)n2C)cc1 (as salt: hydrochloride) [Compound 75, 3-Methyl-2-{methyl-[2-(4-methylaminomethyl-phenyl)-ethyl]-amino}-6-pyridin-4-yl-3H-pyrimidin-4-one]"
5,145 to 148 °C,"NCCn1c(NCCCc2ccccc2)nc(-c2ccncc2)cc1=O (as salt: hydrochloride) [Compound 84, 3-(2-Amino-ethyl)-2-(3-phenyl-propylamino)-6-pyridin-4-yl-3H-pyrimidin-4-one]"
6,198 to 201 °C,"COc1ccccc1CCNc1nc(-c2ccncc2)cc(=O)n1CCCN (as salt: hydrochloride) [Compound 85, 3-(3-Amino-propyl)-2-[2-(2-methoxy-phenyl)-ethylamino]-6-pyridin-4-yl-3H-pyrimidin-4-one]"
7,178 to 180 °C,"NCCCCCn1c(NCCc2ccccc2)nc(-c2ccncc2)cc1=O (as salt: hydrochloride) [Compound 88, 3-(5-Amino-pentyl)-2-phenethylamino-6-pyridin-4-yl-3H-pyrimidin-4-one]"
8,170 to 175 °C,"NCCCCn1c(NCCc2ccccc2)nc(-c2ccncc2)cc1=O (as salt: hydrochloride) [Compound 89, 3-(4-Amino-butyl)-2-phenethylamino-6-pyridin-4-yl-3H-pyrimidin-4-one]"
9,198 to 200 °C,"Cn1c(NCC=Cc2ccccc2)nc(-c2ccncc2)cc1=O (as salt: hydrochloride) [Compound 95, 3-Methyl-2-(3-phenyl-allylamino)-6-pyridin-4-yl-3 H-pyrimidin-4-one]"
10,187 to 189 °C,"Cn1c(NCCCc2ccccc2)nc(-c2ccncc2)cc1=O (as salt: hydrochloride) [Compound 96, 3-Methyl-2-(3-phenyl-propylamino)-6-pyridin-4-yl-3H-pyrimidin-4-one]"
11,217 to 218 °C,"Cn1c(NCCc2c[nH]c3ccccc23)nc(-c2ccncc2)cc1=O (as salt: oxalate) [Compound 29, 2-[[2-(1H-indol-3-yl)ethyl]amino]-3-methyl-6-pyridin-4-ylpyrimidin-4(3H)-one]"
12,239 to 241 °C,"CCNc1nc(-c2ccncc2)cc(=O)n1C (as salt: oxalate) [Compound 36, 2-(ethylamino)-3-methyl-6-pyridin-4-ylpyrimidin-4(3H)-one]"
13,149.2 to 149.5 °C,"COc1ccccc1CCNc1nc(-c2ccncc2)cc(=O)n1C [Compound 4, 2-[[2-(2-methoxyphenyl)ethyl]amino]-3-methyl-6-pyridin-4-ylpyrimidin-4(3H)-one]"
14,184 to 187.2 °C,"Cn1c(NCCc2ccccc2F)nc(-c2ccncc2)cc1=O [Compound 5, 2-[[2-(2-fluorophenyl)ethyl]amino]-3-methyl-6-pyridin-4-ylpyrimidin-4(3H)-one]"
15,158.9 to 159.2 °C,"Cn1c(NCCc2cccc(F)c2)nc(-c2ccncc2)cc1=O [Compound 6, 2-[[2-(3-fluorophenyl)ethyl]amino]-3-methyl-6-pyridin-4-ylpyrimidin-4(3H)-one]"
16,178.8 to 178.9 °C,"Cn1c(NCCc2ccc(F)cc2)nc(-c2ccncc2)cc1=O [Compound 7, 2-[[2-(4-fluorophenyl)ethyl]amino]-3-methyl-6-pyridin-4-ylpyrimidin-4(3H)-one]"
17,175.2 to 175.4 °C,"Cn1c(NCCc2ccccc2Cl)nc(-c2ccncc2)cc1=O [Compound 9, 2-[[2-(2-chlorophenyl)ethyl]amino]-3-methyl-6-pyridin-4-ylpyrimidin-4(3H)-one]"
18,197.3 to 197.5 °C,"Cn1c(NCCc2ccc(N)cc2)nc(-c2ccncc2)cc1=O [Compound 11, 2-[[2-(4-aminophenyl)ethyl]amino]-3-methyl-6-pyridin-4-ylpyrimidin-4(3H)-one]"
19,187 to 187.1 °C,"COc1ccc(CCNc2nc(-c3ccncc3)cc(=O)n2C)cc1OC [Compound 12, 2-[[2-(3,4-dimethoxyphenyl)ethyl]amino]-3-methyl-6-pyridin-4-ylpyrimidin-4(3H)-one]"
20,180.9 to 181.3 °C,"COc1ccc(OC)c(CCNc2nc(-c3ccncc3)cc(=O)n2C)c1 [Compound 13, 2-[[2-(2,5-dimethoxyphenyl)ethyl]amino]-3-methyl-6-pyridin-4-ylpyrimidin-4(3H)-one]"
21,165.3 to 165.5 °C,"Cn1c(NCCc2ccc(Cl)cc2)nc(-c2ccncc2)cc1=O [Compound 14, 2-[[2-(4-chlorophenyl)ethyl]amino]-3-methyl-6-pyridin-4-ylpyrimidin-4(3H)-one]"
22,257.4 to 257.9 °C,"Cn1c(NCCc2ccc(O)cc2)nc(-c2ccncc2)cc1=O [Compound 15, 2-[[2-(4-hydroxyphenyl)ethyl]amino]-3-methyl-6-pyridin-4-ylpyrimidin-4(3H)-one]"
23,184.7 to 185 °C,"Cc1ccc(CCNc2nc(-c3ccncc3)cc(=O)n2C)cc1 [Compound 16, 2-[[2-(4-methylphenyl)ethyl]amino]-3-methyl-6-pyridin-4-ylpyrimidin-4(3H)-one]"
24,162.8 to 163 °C,"Cn1c(NCCc2cccc(Cl)c2)nc(-c2ccncc2)cc1=O [Compound 18, 2-[[2-(3-chlorophenyl)ethyl]amino]-3-methyl-6-pyridin-4-ylpyrimidin-4(3H)-one]"

# Second part, the compound before the results:
row,Compound,melting point
1,CCCCCCCCNc1nc(-c2ccncc2)cc(=O)n1C,114 to 116 °C
2,NCCCCCCNc1nc(-c2ccncc2)cc(=O)n1CCCc1ccccc1 (as salt: hydrochloride),142 to 143 °C
3,NCCCCCCNc1nc(-c2ccncc2)cc(=O)n1CCc1ccccc1 (as salt: hydrochloride),225 to 228 °C
4,NCCCCCCn1c(NCCCc2ccccc2)nc(-c2ccncc2)cc1=O (as salt: hydrochloride),192 to 195 °C
5,NCCCCCCn1c(NCCc2ccccc2)nc(-c2ccncc2)cc1=O (as salt: hydrochloride),125 to 127 °C
6,CN(C)CCn1c(NCCCc2ccccc2)nc(-c2ccncc2)cc1=O (as salt: hydrochloride),212 to 215 °C
7,NCCCCCCNc1nc(-c2ccncc2)cc(=O)n1Cc1ccccc1 (as salt: hydrochloride),292 to 298 °C
8,"NCCCCNc1nc(-c2ccncc2)cc(=O)n1CCCc1ccccc1 (as salt: hydrochloride) [Compound 41, 2-(4-Amino-butylamino)-3-(3-phenyl-propyl)-6-pyridin-4-yl-3H-pyrimidin-4-one]",134 to 136 °C
9,"NCCCCCNc1nc(-c2ccncc2)cc(=O)n1CCc1ccccc1 (as salt: hydrochloride) [Compound 43, 2-(5-Amino-pentylamino)-3-phenethyl-6-pyridin-4-yl-3H-pyrimidin-4-one]",235 to 238 °C
10,"NCCCCNc1nc(-c2ccncc2)cc(=O)n1CCc1ccccc1 (as salt: hydrochloride) [Compound 45, 2-(4-Amino-butylamino)-3-phenethyl-6-pyridin-4-yl-3H-pyrimidin-4-one]",246 to 248 °C
11,"CCCCCCCCCCNc1nc(-c2ccncc2)cc(=O)n1C (as salt: hydrochloride) [Compound 53, 2-Decylamino-3-methyl-6-pyridin-4-yl-3H-pyrimidin-4-one]",162 to 164 °C
12,"CN(CCCC1CCCCC1)c1nc(-c2ccncc2)cc(=O)n1C (as salt: hydrochloride) [Compound 68, 2-[(3-Cyclohexyl-propyl)-methyl-amino]-3-methyl-6-pyridin-4-yl-3H-pyrimidin-4-one]",188 to 191 °C
13,"Cn1c(NCc2cccc(OCCC3CCNCC3)c2)nc(-c2ccncc2)cc1=O (as salt: hydrochloride) [Compound 72, 3-methyl-2-[3-(2-piperidin-4-yl-ethoxy)-benzylamino]-6-pyridin-4-yl-3H-pyrimidin-4-one]",225 to 232 °C
14,"Cn1c(N(CCCN)CCCc2ccccc2)nc(-c2ccncc2)cc1=O (as salt: hydrochloride) [Compound 77, 2-[(3-Amino-propyl)-(3-phenyl-propyl)-amino]-3-methyl-6-pyridin-4-yl-3H-pyrimidin-4-one]",185 to 189 °C
15,"NCCCCCn1c(NCCCc2ccccc2)nc(-c2ccncc2)cc1=O (as salt: hydrochloride) [Compound 79, 3-(5-Amino-pentyl)-2-(3-phenyl-propylamino)-6-pyridin-4-yl-3H-pyrimidin-4-one]",123 to 126 °C
16,"NCCCCn1c(NCCCc2ccccc2)nc(-c2ccncc2)cc1=O (as salt: hydrochloride) [Compound 80, 3-(4-Amino-butyl)-2-(3-phenyl-propylamino)-6-pyridin-4-yl-3H-pyrimidin-4-one]",124 to 127 °C
17,"Cn1c(NCc2cccc(OCCCc3ccncc3)c2)nc(-c2ccncc2)cc1=O (as salt: hydrochloride) [Compound 81, 3-Methyl-6-pyridin-4-yl-2-[3-(3-pyridin-4-yl-propoxy)-benzylamino]-3H-pyrimidin-4-one]",210 to 213 °C
18,"NCCCCNc1nc(-c2ccncc2)cc(=O)n1Cc1ccccc1 (as salt: hydrochloride) [Compound 90, 2-(4-Amino-butylamino)-3-benzyl-6-pyridin-4-yl-3H-pyrimidin-4-one]",163 to 168 °C (dec.)
19,"Cn1c(N2CCCCC2)nc(-c2ccncc2)cc1=O (as salt: tartrate) [Compound 38, 2-(piperidin-1-yl)-3-methyl-6-pyridin-4-ylpyrimidin-4(3H)-one]",228 to 230 °C
